Measurements as given in US20080003282A1, “Antiparasitical agents and methods for treating, preventing and controlling external parasites in animals” (priority 2005, published 2008).
Read-outs that look alike come from different tables or passages of the source.

Key:
[1] = type: physicochemical
Protocol: In Vitro Degradation Studies
A solution containing thioamide derivative of fipronil (“TD-fipronil”) in a solution of CH3CN/H2O (50:50 v/v) and the solution was subjected to the following degradation agents: an acid (0.5 N HCl); a base (0.5 N NaOH); fluorescent light; heat (65° C.); an oxidizer (5% H2O2); and UV light. The identity of fipronil formed was confirmed via HPLC with UV detection and HPLC with diode array detection.

[2] = parameters: species or system dogs; conditions: dog, po, 10 mg/kg
Protocol: In Vivo Degradation Study—Oral Administration
An oral formulation (solution) comprising 100 mg/ml of thioamide derivatives of fipronil dissolved in 60:40 propylene glycol: glycerol formal was orally administered to dogs at a dosage rate of 10 mg/kg and the concentration of fipronil in blood plasma measured at 6 hours, day 1, day 2, and day 7 and is presented below

For `NC(=S)c1nn(-c2c(Cl)cc(C(F)(F)F)cc2Cl)c(N)c1[S+]([O-])C(F)(F)F` (stereo not shown) [TD-fipronil], the degradation product formed [1] was “fipronil sulfone”, the “stability in acid” value [1] was “stable in acid” and the fipronil formed ([1]; Acid (0.5 N HCl), 4 days) was “being degraded in 4 days; negligible amounts”. The fipronil formed ([1]; Base (0.5 N NaOH)) was “no fipronil was formed”, the fipronil formed ([1]; Oxidation (5% H2O2)) was “no fipronil was formed” and the “sensitivity to light” value ([1]; UV light) was “very sensitive to light”. The “in vivo degradation into fipronil judged against efficacy” value [2] was “degrades into fipronil in vivo in amounts that are sufficient for efficacy against fleas and ticks”.
